According to patent US12084442B2, “Naphthyridinone derivatives for the treatment of a disease or disorder” (Novartis AG, priority 2021, dated 2024):

What was measured:
[1] = Pharmacokinetic properties in rats (IV and PO, whole blood LC-MS/MS); type: in vivo, Spargue Dawley/CD, male; conditions: for Rat AUC0-24 h 3 mg/kg: 3 mg/kg PO, suspension; for Rat AUC0-24 h 3 mg/kg / clearance: whole blood; for clearance: male, Sprague Dawley/CD, rat, IV dosing (0.3-1 mg/kg), CL = Dose/AUCinf; for Rat F: oral bioavailability, PO 3 mg/kg vs IV
Method: The pharmacokinetic properties of the compounds in rats were assessed by the following in vivo studies as described below.
At least four days before first drug administration, the rats (250-350 g) were anesthetized and, under aseptic conditions, catheters were surgically implanted into the left and right jugular veins (one for blood collection and the other one for intravenous injection). The catheters were exteriorized and fixed at the neck. For analgesic treatment, animals received analgesics before surgery and subsequently twice at appropriate times after surgery. The freely-moving animals equipped with catheters are kept individually in Macrolon cages, with free access to food and water throughout the experiment. After a recovery phase of at least 4 days, a single test compound was administered intravenously or orally, based upon the individual body weights.
The test articles were administered as solution in NMP:PEG 200 (10:90 v/v). Test articles where no solution can be obtained were rejected and not used in discrete or cassette dosing.
The test article were administered as suspension in MC:Tween 80:water (0.5:0.1:99.4 w/v/v).
The test article was administered as solution and as a bolus injection or as short I.V. infusion (30 seconds) via the left jugular vein catheter to conscious rats. The dose volume was 0.5 mL/kg body weight.
The test article was administered as a solution or suspension into the esophagus via a gavage tube to conscious rats. The dose volume was 5 mL/kg body weight. The exact start time of dosing and exact dose volume was noted.
Blood samples (20 μL) were collected from the right jugular vein catheter of cannulated animals (if JV catheter becomes non patent during the PK experiment (i.e., after dosing), blood can exceptionally be collected by tail vein puncture but it must be clearly specified into the in-life observations and data study rep) in tubes containing 10% of blood of 2% W/V K2 EDTA (2.0 mg/mL) at the different time intervals. Blood was collected following IV dosing at 0.083, 0.25, 0.5, 1, 2, 4, 7 and 24 h post dose. Blood was collected following PO dosing: 0.25, 0.5, 1, 2, 4, 7 and 24 h post dose.
The concentrations of compounds in whole blood were quantified using a liquid chromatography/mass spectrometry (LC-MS/MS) assay. 20 μL of each blood sample were precipitated with 100 μL of acetonitrile containing generic internal standards (carbamazepine/telmisartan/verapamil; c=50 ng/mL). The samples were vortexed thoroughly then centrifuged (5 min, 4° C.). The supernatant (80 μL) was transferred to a clean 96-well plate and mixed with 80 μL of water.
The samples were injected (1 to 20 μL) onto suitable analytical columns, using various isocratic methods and flow rates. Mobile phases typically consisting of 0.1% formic acid in water (solvent A) and 0.1% formic acid in acetonitrile (solvent B) with additional modifiers, if needed. Compounds and the internal standards were eluted at various retention times. The HPLC systems were interfaced to mass spectrometers. MS/MS analyses were carried out using electrospray ionization (ESI), typically in the positive ionization mode. Compounds and the internal standards were monitored using multiple reaction monitoring (MRM).
The standard curves employed for sample quantitation ranged over several log units. The lower limit of quantitation (LLOQ) in blood was determined and used as cutoff for the analytical sensitivity. Known amounts of the compounds were spiked into blood to create quality control samples with six known concentrations in singlets. The accuracy of the in vivo blood sample concentration determination was considered acceptable when the intra-assay accuracies obtained for the quality control samples were within 70% to 130% of the expected concentrations. Subsequently, from the time concentration data, pharmacokinetic parameters were calculated by non-compartmental regression analyses using an in house fitting program. […]

GIRK1/4 = GIRK1/4 (Homo sapiens (Human), UniProt P48544+P48549); test: GIRK1/4 activity assay (Quattro/IonWorks population patch clamp, inward potassium current); type: cell-based; conditions: GIRK1/4 HEK293 stable cells; current inhibition normalized to DMSO-only control
GIRK1/4, sequence (P48549 whole entry): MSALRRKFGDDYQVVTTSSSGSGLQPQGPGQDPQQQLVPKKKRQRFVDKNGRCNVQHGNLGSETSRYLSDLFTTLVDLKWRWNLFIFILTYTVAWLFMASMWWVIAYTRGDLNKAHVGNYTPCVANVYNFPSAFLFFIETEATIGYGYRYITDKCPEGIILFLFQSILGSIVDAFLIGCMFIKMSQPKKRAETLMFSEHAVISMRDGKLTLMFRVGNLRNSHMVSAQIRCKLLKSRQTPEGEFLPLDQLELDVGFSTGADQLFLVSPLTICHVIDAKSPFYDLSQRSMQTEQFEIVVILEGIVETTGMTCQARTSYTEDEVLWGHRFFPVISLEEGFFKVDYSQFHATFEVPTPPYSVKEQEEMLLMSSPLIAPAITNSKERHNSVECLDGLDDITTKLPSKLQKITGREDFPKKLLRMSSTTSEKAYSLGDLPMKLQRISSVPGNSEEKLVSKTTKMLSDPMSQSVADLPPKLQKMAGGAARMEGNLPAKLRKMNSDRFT
GIRK1/4, sequence (P48544 whole entry): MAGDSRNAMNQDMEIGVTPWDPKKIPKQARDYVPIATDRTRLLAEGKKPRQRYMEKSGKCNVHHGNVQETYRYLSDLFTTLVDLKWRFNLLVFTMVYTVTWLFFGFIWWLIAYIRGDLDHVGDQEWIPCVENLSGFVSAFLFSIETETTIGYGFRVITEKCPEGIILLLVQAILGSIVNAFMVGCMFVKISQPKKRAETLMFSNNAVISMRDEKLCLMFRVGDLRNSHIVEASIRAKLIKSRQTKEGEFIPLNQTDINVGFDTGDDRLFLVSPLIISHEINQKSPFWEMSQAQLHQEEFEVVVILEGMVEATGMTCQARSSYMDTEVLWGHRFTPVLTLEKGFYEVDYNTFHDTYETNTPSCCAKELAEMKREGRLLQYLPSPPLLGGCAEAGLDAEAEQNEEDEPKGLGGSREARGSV
Method: The GIRK1/4 activity of a compound according to the present invention was assessed by the following in vitro method.
• a. External buffer: 10 mM NaCl, 50 mM Na Gluconate, 80 mM K Gluconate, 1.8 mM CaCl2, 1 mM MgCl2, 10 mM HEPES, 10 mM Glucose, pH 7.4; osmolarity 300-310 Osm/L. • b. Internal buffer: 30 mM KCl, 100 mM K Gluconate, 1 mM MgCl2, 10 mM HEPES, 1 mM EGTA, 10 mM NaCl, pH 7.2; osmolarity 284-292 Osm/L. Compounds: • c. Prepare seven-fold compound dilution series (10 mM to 20 uM) in 100% DMSO, in 384-well polypropylene plates. • d. Propafenone (Sigma Aldrich, catalog number P4670) was used as a positive control and DMSO for neutral control • e. Resuspend 1 μl of compounds in DMSO into 66.7 μl external buffer in 384-well polypropylene plate and load into Plate 1 section of Molecular Devices Quattro® Quattro Setup: • f. Load 384-well Population Patch Plate (Molecular Devices #9000-0902) into Quattro • g. Fill Quattro F-soak trough with 20% DMSO and 50% EtOH • h. Fill Quattro buffer trough with external buffer • i. Attach internal buffer flask to Quattro internal buffer tubing • j. Attach PBS (Phosphate Buffered Saline, minus Ca^++ and Mg^++, pH7.4) bottle to F-head & E-head wash on Quattro Antibiotic: • k. Resuspend 5.1-5.8 mg amphotericin B (Sigma Aldrich, catalog number A2411) in 175 μl DMSO • l. Add the resulting solution to 50 mL internal buffer and attach to antibiotic tubing port on Quattro Cells: • m. Use GIRK1/4 HEK293 stable cells (obtained from ChanTest, 14656 Neo Parkway, Cleveland, Ohio 44128) grown to ˜80% confluency in the following cell culture medium: DMEM containing 10% (v/v) Fetal Bovine Serum, Penicillin/Streptomycin (at “IX” concentration from a 100× stock), 0.5 mg/mL G418 and 0.1 mg/mL Zeocin. • n. Detach cells using Detachin (Genlantis, 11011 Torreyana, San Diego, CA 92121), washed with PBS (minus Ca^++ and Mg^++) and resuspend in external buffer (5 mL final volume at 2.0-2.1×10^6 cells/mL) • o. Load into cell trough of Quattro Assay Protocol:
Quattro was controlled using IonWorks v2 software to perform the following steps: • p. Added 3.5 μl cells plus 3.5 μl external buffer to wells of Quattro Patch Plate® • q. Circulated amphotericin B and internal buffer onto cells • r. Applied the following voltage protocol: Pulse 1: 15 mV for 300 milliseconds (ms), followed by Pulse 2: −120 mV for 400 ms, then Pulse 3: −15 mV for 400 ms, and finally Pulse 4: −120 mV to 40 mV over 500 ms (this is a voltage ramp). • s. Measured magnitude of inward potassium current at time point between 1200-1220 ms from start of Pulse 1 (i.e., during the voltage ramp phase). • t. Added 3.5 μl of diluted compounds (or DMSO) to wells and repeated […] (final compound concentrations are 50 uM to 0.1 uM, and each concentration was tested in quadruplicate—i.e., in 4 separate wells). • u. The difference between current magnitude pre vs. post-compound gave a measure of GIRK1/4 inhibition. Data Analysis:
IC50 values were calculated by plotting the percentage of current inhibition (normalized to the DMSO-only control) as a function of compound concentration using standard data analysis software.

| Rat AUC0-24 h 3 mg/kg [1] | clearance [1] | Rat F [1] | IC50 (GIRK1/4) | Structure (SMILES) |
| --- | --- | --- | --- | --- |
| 2310 nMh | 31.7 mL/min/kg | 73% | 250 nM | CNC(=O)COc1cc(Cl)c(-n2c(C)cc(=O)c3c(OCC(N)=O)ncc(Cl)c32)c(Cl)c1 [Example 17, 2-(4-(5-(2-Amino-2-oxoethoxy)-8-chloro-2-methyl-4-oxo-1,6-naphthyridin-1(4H)-yl)-3,5-dichlorophenoxy)-N-methylacetamide] |
| 1460 nMh | 24.2 mL/min/kg | 40% | 80 nM | CC(=O)NCCOc1ncc(Cl)c2c1c(=O)cc(C)n2-c1c(Cl)cc(OCCO)cc1Cl [Example 9, N-(2-((8-chloro-1-(2,6-dichloro-4-(2-hydroxyethoxy)phenyl)-2-methyl-4-oxo-1,4-dihydro-1,6-naphthyridin-5-yl)oxy)ethyl)acetamide] |
| 1360 nMh | 23.6 mL/min/kg | 37% | 190 nM | Cc1cc(=O)c2c(CCCS(C)(=O)=O)ncc(Cl)c2n1-c1c(Cl)cc(OCC(C)(C)O)cc1Cl [Example 22, 8-Chloro-1-(2,6-dichloro-4-(2-hydroxy-2-methylpropoxy)phenyl)-2-methyl-5-(3-(methylsulfonyl)propyl)-1,6-naphthyridin-4(1H)-one] |
| 2336 nMh | 14.6 mL/min/kg | 33% | 60 nM | CNC(=O)COc1ncc(Cl)c2c1c(=O)cc(C)n2-c1c(Cl)cc(OCCO)cc1Cl [Example 5, 2-((8-Chloro-1-(2,6-dichloro-4-(2-hydroxyethoxy)phenyl)-2-methyl-4-oxo-1,4-dihydro-1,6-naphthyridin-5-yl)oxy)-N-methylacetamide] |
| 7738 nMh | 5.7 mL/min/kg | 47% | 220 nM | CNC(=O)CCOc1ncc(Cl)c2c1c(=O)cc(C)n2-c1c(Cl)cc(OCC(C)(C)O)cc1Cl [Example 3, 3-((8-Chloro-1-(2,6-dichloro-4-(2-hydroxy-2-methylpropoxy)phenyl)-2-methyl-4-oxo-1,4-dihydro-1,6-naphthyridin-5-yl)oxy)-N-methylpropanamide] |

Second part, the molecule before the results:

| Structure (SMILES) | Rat AUC0-24 h 3 mg/kg [1] | clearance [1] | Rat F [1] | IC50 (GIRK1/4) |
| --- | --- | --- | --- | --- |
| Cc1cc(=O)c2c(OCC(=O)NCCO)ncc(Cl)c2n1-c1c(Cl)cc(OCCO)cc1Cl [Example 2, 2-((8-Chloro-1-(2,6-dichloro-4-(2-hydroxyethoxy)phenyl)-2-methyl-4-oxo-1,4-dihydro-1,6-naphthyridin-5-yl)oxy)-N-(2-hydroxyethyl)acetamide] | 1288 nMh | 23 mL/min/kg | 29% | 220 nM |
| CNC(=O)CCOc1ncc(Cl)c2c1c(=O)cc(C)n2-c1c(Cl)cc(OC[C@@H](C)O)cc1Cl [Example 6, (R)-3-((8-Chloro-1-(2,6-dichloro-4-(2-hydroxypropoxy)phenyl)-2-methyl-4-oxo-1,4-dihydro-1,6-naphthyridin-5-yl)oxy)-N-methylpropanamide] | 3570 nMh | 21.6 mL/min/kg | 82% | 130 nM |
| CNC(=O)[C@H](C)COc1ncc(Cl)c2c1c(=O)cc(C)n2-c1c(Cl)cc(OCCO)cc1Cl [Example 7, (R)-3-((8-Chloro-1-(2,6-dichloro-4-(2-hydroxyethoxy)phenyl)-2-methyl-4-oxo-1,4-dihydro-1,6-naphthyridin-5-yl)oxy)-N,2-dimethylpropanamide] | 4410 nMh | 13.6 mL/min/kg | 61% | 70 nM |
| CNC(=O)[C@@H](O)COc1ncc(Cl)c2c1c(=O)cc(C)n2-c1c(Cl)cc(OCCO)cc1Cl [Example 13, (S)-3-((8-Chloro-1-(2,6-dichloro-4-(2-hydroxyethoxy)phenyl)-2-methyl-4-oxo-1,4-dihydro-1,6-naphthyridin-5-yl)oxy)-2-hydroxy-N-methylpropanamide] | 2410 nMh | 18.4 mL/min/kg | 55% | 60 nM |
